Article PMC5781198 (Influenza and Other Respiratory Viruses, 2013)

What was measured:
[1] = test system: influenza A(H1N1)pdm09 viruses, neuraminidase (NA); format: biochemical, Influenza A(H1N1)pdm09 virus
[2] = test system: influenza A(H3N2) viruses, neuraminidase (NA); format: biochemical, Influenza A(H3N2) virus
[3] = test system: influenza B Victoria lineage viruses, neuraminidase (NA); format: biochemical, Influenza B virus (Victoria lineage)
[4] = test system: A/Puerto Rico/34/2011 NA (D151D/G/N); format: biochemical, Influenza A(H3N2) virus
[5] = test system: influenza B viruses, neuraminidase (NA); format: biochemical, Influenza B virus

Row | SMILES | sensitivity compared with the other three NAIs [1] | susceptibility of A(H1N1)pdm09 viruses compared with A(H3N2) viruses [1] | sensitivity compared with zanamivir and laninamivir [2] | difference in IC50 between Victoria and Yamagata lineage viruses [3] | fold difference in IC50 [4] | IC50 of outliers relative to the mean IC50 for the drug [1] | susceptibility in words [1] | susceptibility in words [5] | IC50 of outliers relative to the mean IC50 for the drug [2] | susceptibility in words [2]
1 | CCC(CC)[C@H](NC(C)=O)[C@@H]1[C@H](O)[C@@H](C(=O)O)C[C@H]1N=C(N)N [Peramivir, peramivir] | fourfold more sensitive | approximately twofold more sensitive | threefold more sensitive | no apparent differences | 0·08 (1) fold |  |  |  |  | 
2 | [H]/N=C(\N)N[C@H]1C=C(C(=O)O)O[C@@H]([C@H](OC)[C@H](O)CO)[C@@H]1NC(C)=O [Laninamivir, laninamivir] |  | approximately twofold more sensitive |  | no apparent differences |  | approximately twofold more | showed sensitivity to the drug | showed sensitivity to the drug | approximately twofold more | showed sensitivity to the drug
3 | CC(=O)N[C@H]1[C@H]([C@H](O)[C@H](O)CO)OC(C(=O)O)=C[C@@H]1N=C(N)N [Zanamivir, zanamivir] |  | approximately twofold more sensitive |  | no apparent differences |  |  | all showed sensitivity to the drug | showed sensitivity to the drug |  | 
